Read-outs that look alike come from different tables or passages of the source. Numbered stars: 1 amine (or outer) side, 2 acyl side, 3 side chain; on linkers, the order of the positions; unused ones are H or OH. Bridge positions count the residues as written; N and C are the ends. Square brackets hold non-standard residues; d marks the D form. Triazole bridges read from a SMILES are 1,4-linked. Ends that are not written are not given here. Peptide text beside a SMILES is read from it. * marks the point of attachment. Biotinyl(3aR,4R,6aS) = O=C1N[C@@H]2[C@@H](CS[C@@H]2CCCCC(=O)*)N1; X6 = O=C([C@@H](Cc1ccc(Oc2ccccc2)cc1)N[*:1])[*:2]; dTrp(1-Me) = Cn1cc(C[C@@H](N)C(=O)O)c2ccccc21; NMeLys(N3) = CN[C@@H](CCCCN=[N+]=[N-])C(=O)O; X1 = O=C(CSc1nonc1/C(=N/O)Nc1ccc(F)c(Br)c1)*; dPhe(4-Me) = Cc1ccc(C[C@@H](N)C(=O)O)cc1; Lys(N3) = [N-]=[N+]=NCCCC[C@H](N)C(=O)O; Phe(4-F) = N[C@@H](Cc1ccc(F)cc1)C(=O)O; X4 = O=C1NC2CS[C@@H](CCCCC(=O)*)C2N1; PEG6 = NCCOCCOCCOCCOCCOCCOCCC(=O)O; dTle = CC(C)(C)[C@@H](N)C(=O)O; dNMeV = CN[C@@H](C(=O)O)C(C)C; PEG4 = NCCOCCOCCOCCOCCC(=O)O; AEEEA = NCCOCCOCCOCC(=O)O; Pra = C#CC[C@H](N)C(=O)O
How the values were obtained:
[1] = biological target: T1, His-tagged IDO1 human recombinant protein (Homo sapiens, UniProt P14902); experiment: IDO1 ELISA (Affinity Assay): sandwich ELISA, biotinylated ligand immobilized on NEUTRAVIDIN plate; type: binding
T1 construct: purchased BPS Biosciences 71182
T1 sequence (P14902 whole entry): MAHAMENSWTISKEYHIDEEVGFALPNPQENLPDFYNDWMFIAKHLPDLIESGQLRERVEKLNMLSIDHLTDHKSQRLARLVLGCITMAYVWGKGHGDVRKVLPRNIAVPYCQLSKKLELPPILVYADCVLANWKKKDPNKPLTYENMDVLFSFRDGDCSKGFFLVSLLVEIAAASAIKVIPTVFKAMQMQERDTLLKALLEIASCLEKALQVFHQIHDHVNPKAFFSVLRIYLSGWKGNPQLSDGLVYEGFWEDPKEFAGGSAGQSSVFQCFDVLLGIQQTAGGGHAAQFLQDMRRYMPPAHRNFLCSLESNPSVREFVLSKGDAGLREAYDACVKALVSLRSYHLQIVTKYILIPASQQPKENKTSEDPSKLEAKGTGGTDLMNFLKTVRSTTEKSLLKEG
Description: Protocol: A black 96-well NEUTRAVIDIN® Coated High Binding Capacity plate (15510, Pierce) was coated with 2 μM biotinylated macrocyclic peptide ligand in TBS (25 mM Tris-HCl, 150 mM NaCl, pH 7.6) for 2 h at room temperature. The plate was aspirated and then washed with Wash Buffer (0.05% (v/v) TWEEN® 20 in PBS, 6×). His-tagged IDO1 human recombinant protein (71182, BPS Biosciences) was serially diluted in Wash Buffer (from 200 to 0 nM) and incubated in the designated microwells for 1 h at room temperature. Microwells were aspirated and subsequently washed with Wash Buffer (11×). To detect the bound IDO1 protein, Alkaline Phosphatase (AP)-conjugated Anti-6×HIS TAG® antibody [HIS-1] (ab49746, Abcam) was prepared at 1:10,000 dilution and added to the microwells for 1 h at room temperature. The plate was aspirated and washed with Wash Buffer (5×). ATTOPHOS® AP Fluorescent Substrate System (S1000, Promega) was employed to develop the microwells. Using an excitation wavelength of 430 nm, fluorescent emission at 535 nm was recorded by Beckman Coulter DTX880 photometer. Titration curves were fit using a four-parameter regression curve fitting program to determine EC50 values.
For these assays, a dilution series of His-tagged IDO1 human recombinant protein was captured using the macrocyclic peptide ligands immobilized on a NEUTRAVIDIN®-coated plate. […] The sequences of the peptide ligands are listed in Table 1, where D-amino acids are denoted in lowercase, Me-Trp=1-methyl-L-tryptophan, and F-Phe=4-fluoro-L-phenylalanine. Chemical structures are shown below Table 1.
The D-alanine substituted, biotin-PEG3-modified macrocycles were tested in the IDO1 ELISA (Affinity assay). For these assays, a dilution series of His-tagged IDO1 human recombinant protein was captured using macrocycles immobilized on a NEUTRAVIDIN®-coated plate.

[2] = biological target: T2, recombinant human IDO1 (Homo sapiens, UniProt P14902); experiment: IDO1 Fluorogenic Inhibitor Screening Assay (enzyme inhibition); type: biochemical
T2 construct: purchased BPS Biosciences 72037
T2 sequence (P14902 whole entry): as above
Description: The IDO1 Fluorogenic Inhibitor Screening Assay Kit (72037, BPS Biosciences) was used to measure the enzyme inhibition of human IDO1 in the presence of macrocyclic peptide ligands. IDO1 catalyzes the conversion of the essential amino acid L-tryptophan (L-Trp) to N-formylkynurenine (NFK). In the assay, the test inhibitor and enzyme were added to a sample containing L-Trp substrate. After incubation for 1 h at room temperature, 20 μL Fluorescence Solution was added and incubated at 37° C. for 4 h to produce a fluorescent product. Activity was measured by reading sample fluorescence at λ=510 nm following excitation of the reaction product at λ=400 nm.

[3] = 2 μM biotinylated macrocycle immobilized, human IDO1 titrated 200 to 0 nM, read-out: EC50, sandwich ELISA for human IDO1 protein against biotin-PEG3-modified macrocycle
[4] = N-methylated heterobiligands, PEG6 linker, read-out: IC50
[5] = Table 15, read-out: Inhibition Recombinant IDO1 IC50

**Q.** Which EC50 [1, 3] does the source give for `Cn1cc(C[C@H]2NC(=O)[C@@H](CCCNC(=N)N)NC(=O)[C@@H](Cc3ccccc3)NC(=O)[C@@H](CO)NC(=O)[C@@H](CC(N)=O)NC(=O)[C@@H](NC(=O)COCCOCCOCCNC(=O)CCCC[C@@H]3SCC4NC(=O)NC43)Cc3cn(nn3)CCCC[C@@H](C(N)=O)NC2=O)c2ccccc21` (stereo partly drawn) [nsfr(Me-Trp), biotin-PEG3-Cy(nsfr(Me-Trp))] ({X4-AEEEA}-[Pra][dN][dS][dF][dR][dTrp(1-Me)][Lys(N3)]-NH2; triazole 1-7) here?
**A.** 0.124 µM

**Q.** And the EC50 ([1]; Example 9, read-out: Binding affinity (EC50) of prioritized Epitope 1 hits)?
**A.** 0.124 µM

**Q.** Which IC50 [2, 4] does the source give for `CC(C)[C@@H]1C(=O)N[C@H](C)C(=O)N[C@H](Cc2ccc(O)cc2)C(=O)N[C@H](C(N)=O)CCCCn2cc(nn2)C[C@H](NC(=O)CCOCCOCCOCCOCCOCCOCCNC(=O)CSc2nonc2/C(=N/O)Nc2ccc(F)c(Br)c2)C(=O)N[C@H](Cc2c[nH]c3ccccc23)C(=O)N[C@H](Cc2ccc(O)cc2)C(=O)N1C` [Inh-PEG6-wy(N-Me-v)ay] ({X1-PEG6}-[Pra][dW][dY][dNMeV][dA][dY][Lys(N3)]-NH2; triazole 1-7) here?
**A.** 1.46 µM

**Q.** What about the IC50 [2, 5] of the same compound?
**A.** 1.46 µM

**Q.** With `N=C(N)NCCC[C@H]1NC(=O)[C@H](Cc2ccc(F)cc2)NC(=O)[C@@H](Cc2c[nH]cn2)NC(=O)[C@@H](CO)NC(=O)[C@@H](CC(N)=O)NC(=O)[C@@H](NC(=O)COCCOCCOCCNC(=O)CCCC[C@H]2SC[C@H]3NC(=O)N[C@H]32)Cc2cn(nn2)CCCC[C@@H](C(N)=O)NC1=O` [nsh(F-Phe)r, biotin-PEG3-Cy(nsh(F-Phe)r)] ({Biotinyl(3aR,4R,6aS)-AEEEA}-[Pra][dN][dS][dH][Phe(4-F)][dR][Lys(N3)]-NH2; triazole 1-7) as the compound, how does the EC50 [1, 3] read?
**A.** 0.068 µM

**Q.** For `N=C(N)NCCC[C@H]1NC(=O)[C@@H](Cc2ccc(O)cc2)NC(=O)[C@@H](Cc2c[nH]c3ccccc23)NC(=O)[C@@H](NC(=O)CCOCCOCCOCCOCCNC(=O)CSc2nonc2/C(=N/O)Nc2ccc(F)c(Br)c2)Cc2cn(nn2)CCCC[C@@H](C(N)=O)NC(=O)[C@@H](Cc2ccc(O)cc2)NC1=O` [Inh-PEG4-wyry] ({X1-PEG4}-[Pra][dW][dY][dR][dY][Lys(N3)]-NH2; triazole 1-6), which “IDO1 inhibition potency relative to the small molecule (Inh) alone, in words” value [2] is on record?
**A.** equal in potency

**Q.** What does the source list for `CC(C)[C@H]1NC(=O)[C@@H](Cc2ccc(O)cc2)NC(=O)[C@@H](Cc2c[nH]c3ccccc23)NC(=O)[C@@H](NC(=O)CCOCCOCCOCCOCCOCCOCCNC(=O)CSc2nonc2/C(=N/O)Nc2ccc(F)c(Br)c2)Cc2cn(nn2)CCCC[C@@H](C(N)=O)N(C)C(=O)[C@@H](Cc2ccc(O)cc2)NC(=O)[C@@H](C)NC1=O` [Inh-PEG6-wyvay(N-Me)] ({X1-PEG6}-[Pra][dW][dY][dV][dA][dY][NMeLys(N3)]-NH2; triazole 1-7)?
**A.** IC50 [2, 4]: 0.622 µM; IC50 [2, 5]: 0.622 µM

**Q.** How did the “IDO1 inhibition potency relative to the small molecule (Inh) alone, in words” value [2] turn out when “Inh-PEG6-wyvay ([dW][dY][dV][dA][dY]; also: IDO1 inhibitor via PEG6 linker)” was run?
**A.** an order of magnitude more potent than the small molecule

**Q.** `C[C@H]1NC(=O)[C@@H](CCCNC(=N)N)NC(=O)[C@@H](Cc2c[nH]c3ccccc23)NC(=O)[C@@H](NC(=O)COCCOCCOCCNC(=O)CCCC[C@H]2SC[C@H]3NC(=O)N[C@H]32)Cc2cn(nn2)CCCC[C@@H](C(N)=O)NC(=O)[C@@H](Cc2ccc(O)cc2)NC1=O` [wray, Biotin-PEG3-Cy(wray)] ({Biotinyl(3aR,4R,6aS)-AEEEA}-[Pra][dW][dR][dA][dY][Lys(N3)]-NH2; triazole 1-6) was tested. Which “Binding to human IDO1 by ELISA, in words” value [1] did it give?
**A.** less potent binders

**Q.** With `CC(=O)N[C@H]1Cc2cn(nn2)CCCC[C@@H](C(N)=O)NC(=O)[C@@H](Cc2ccc(C)cc2)NC(=O)CNC(=O)[C@@H](C(C)(C)C)NC(=O)[C@@H](Cc2ccc(Oc3ccccc3)cc2)NC(=O)[C@@H](Cc2c[nH]c3ccccc23)NC1=O` [w(Ph-Tyr)(Me-Val)G(Me-Phe)] (Ac-[Pra][dW][X6][dTle]G[dPhe(4-Me)][Lys(N3)]-NH2; triazole 1-7) as the compound, how does the EC50 ([1]; read-out: Binding affinity (EC50)) read?
**A.** 0.018 µM

**Q.** How did the “Binding to human IDO1 by ELISA, in words” value [1] turn out when `C[C@H]1NC(=O)[C@@H](CCCNC(=N)N)NC(=O)[C@@H](Cc2ccc(O)cc2)NC(=O)[C@@H](NC(=O)COCCOCCOCCNC(=O)CCCC[C@H]2SC[C@H]3NC(=O)N[C@H]32)Cc2cn(nn2)CCCC[C@@H](C(N)=O)NC(=O)[C@@H](Cc2ccc(O)cc2)NC1=O` [yray, Biotin-PEG3-Cy(yray)] ({Biotinyl(3aR,4R,6aS)-AEEEA}-[Pra][dY][dR][dA][dY][Lys(N3)]-NH2; triazole 1-6) was run?
**A.** less potent binders

— patent US12216122B2, “Compositions and methods relating to detection, inhibition, and imaging of indoleamine 2,3-dioxygenase 1 (IDO1)” (Regeneron Pharmaceuticals, Inc., priority 2019, dated 2025)
